# Laboratory results: US5387518A, “Alkaline protease having stability in solution with anionic surfactant, method for producing the same, use thereof and microorganism producing the same” (priority 1991, dated 1995)
# Where two headings read alike, the source gives them in different places.
# Tested on: alkaline protease API-25 produced by Bacillus sp. SD523 (Bacillus firmus, FERM BP-3774)
# Assay type: biochemical
# Experimental: To 500 μl of a 50 mM Atkins-Pantin phosphate buffer solution (pH 10) is added 50 μl of an enzyme solution diluted appropriately, and the resulting mixture is preincubated at 30° C. for 3 to 5 minutes. Then, 500 μl of a 2% Hammerstein casein solution (pH 10) is added to the solution, and after 10 minutes 2 ml of TCA solution (0.132M TCA, adjusted to pH 4 with an acetate buffer solution) is added thereto to stop the reaction. After leaving it to stand at 30° C. for 10~15 minutes, the mixture is filtered using No. 2 filter paper (produced by Toyo Filter Paper Co., Ltd.). To 1 ml of the filtrate solution are added 5 ml of 0.4M sodium carbonate and 1 ml of 6-fold diluted phenol reagent. After leaving the mixture to stand at 30° C. for 20 minutes for color development, its optical density is measured at 660 nm.
# Influence of various inhibitors against the enzyme of the present invention is examined under the conditions and by the method described below.
# Enzyme solutions containing the enzyme of the present invention in a concentration of 20 nkatal/ml are prepared using a 50 mM borate buffer solution (pH 10), respectively. Various inhibitors in concentrations as shown in Table 11 are added to the enzyme solutions, respectively. After incubating the resulting mixtures at 30° C. for 30 minutes, the residual activity of the enzyme in the mixtures is measured. Results obtained are shown in Table 11, in which the activity is expressed in terms of relative activity assuming that the activity in the absence of inhibitors is 100%.
# [1] = inhibitor 1 mM, enzyme 20 nkatal/ml in 50 mM borate buffer pH 10, incubated 30° C. for 30 minutes, activity in the absence of inhibitors = 100%
# [2] = inhibitor 10 mM, enzyme 20 nkatal/ml in 50 mM borate buffer pH 10, incubated 30° C. for 30 minutes, activity in the absence of inhibitors = 100%
Structure (SMILES),Residual Activity (%) (pH 10),Residual Activity (%) [1] [%],Residual Activity (%) [2] [%],"Inhibition of the enzyme (in words) (summary of Table 11, reveals that the enzyme is a serine protease)"
"O=C(O)CN(CCN(CC(=O)O)CC(=O)O)CC(=O)O [EDTA, Ethylenediaminetetraacetic acid]",104,–,–,–
"O=C(O)c1cc[c]([Hg][Cl])cc1 [PCMB, pChloromercuribenzoic acid]",–,98,90,–
"O=S(=O)(F)Cc1ccccc1 [PMSF, Phenylmethanesulfonyl fluoride]",–,31,0.7,inhibited by phenylmethanesulfonyl fluoride (PMSF) considerably
